Test results from patent US11883423B2, “Nucleobase analogue derivatives and their applications” (BOARD OF REGENTS, THE UNIVERSITY OF TEXAS SYSTEM, priority 2014, dated 2024).

Legend:
[1] = Biodistribution in TC-1 tumor-bearing mice; type: in vivo, C57BL/6 mice; settings: 90 min after i.v. 75 mg/kg
Method: A biodistribution study was carried out in TC-1 tumor-bearing C57BL/6 mice. When tumor diameters reached 7-8 mm (i.e., about 4 weeks after tumor cell injection), mice were injected via the tail vein with a Gem-DHA solution (75 mg/kg). Ninety minutes later, mice were euthanized to collect tumors and major organs (e.g., liver, kidneys, spleen, lung, heart, and pancreas). Tissues were homogenized, and Gem-DHA was extracted using ethyl acetate as mentioned above and analyzed using HPLC.

[2] = system: NCI-60 human tumor cell lines; experiment: NCI-60 DTP Human Tumor Cell Line Screen, single dose; type: cell-based
Method: The cytotoxicity of Gem-DHA was also tested using the NCI-60 DTP Human Tumor Cell Line Screen service.

Panc-02 tumors = experiment: Antitumor activity against s.c. Panc-02 tumors in C57BL/6 mice; type: in vivo
Method: Therefore, the in vivo anti-tumor activity of Gem-DHA was also evaluated and compared to that of DHA alone in male C57BL/6 mice (6-8 weeks, Charles River) with subcutaneously (s.c.)
implanted Panc-02 tumors. Briefly, 1×10^6 cells were s.c. injected in the right flank of mice. Sixteen days later, mice were randomized into groups (n=12) and i.p. injected with Gem-DHA (˜55 mg/kg, […]) or DHA (˜33 mg/kg, ˜0.1 mmole/kg). Mice in the control group were i.p. injected with sterile 5% mannitol (w/v). Gem-DHA and DHA was dissolved in a Tween 80/ethanol/water solution with 5% (w/v) of mannitol. The doses were based on the average weight of mice in the same group on the first day of injection. The treatment was repeated twice a week for up to 6 doses. Tumor growth was monitored using a digital caliper, and tumor volume was calculated based on the longest diameter (L1) and the shortest diameter (L2) of each tumor using the equation of V=½×(L1×L2×L2).

Panc-02 cells [3] = experiment: Cytotoxicity, LDH assay, Panc-02 cells; type: cell-based, mouse; settings: 48 h
Method: The cytotoxic activity of Gem-DHA was also evaluated using an LDH assay kit (Takara Clontech). Panc-02 cells were seeded in 96-well plates at 1,500 cells/well and incubated at 37° C. and 5% CO2 for 24 h, followed by treatment with Gem-DHA or gemcitabine HCl as mentioned above for 48 h. LDH activity in the cell culture medium was determined following the manufacturer's instruction.

[4] = set-up: species or system BALB/c mice; settings: female, BALB/c, mouse, in vivo, iv, 75 mg/kg, 1 h
Method: The biodistribution of Gem-DHA was further evaluated in healthy BALB/c mice. Briefly, female BALB/c mice (Charles River, 14-16 weeks, n=3) were injected via the tail vein with Gem-DHA in a Tween 80/ethanol/water solution containing 5% (w/v) mannitol at a dose of 75 mg/kg. After 1 h, mice were euthanized to collect pancreas, lung, spleen, liver, heart, and kidneys. Gem-DHA was extracted from the samples and analyzed using HPLC. As a control, mice (n=3) were also injected with gemcitabine HCl (75 mg/kg) in 5% (w/v) mannitol solution and euthanized 1 h later to collect their pancreas. Gemcitabine was extracted using the following method. Briefly, once the pancreas was collected, it was weighed, placed into 0.25 ml of PBS containing 40 μg of tetrahydrouridine (a deoxycytidine deaminase inhibitor) and homogenized using a bead beater. Deoxyuridine (dU, 20 μl of 20 μg/ml) was then added into the homogenate as an internal standard. Acetonitrile was used to precipitate the proteins twice, and gemcitabine content in the supernatant was analyzed using HPLC. […] Therefore, it appeared that Gem-DHA preferred to distribute in pancreatic tissues.

[5] = Chemical stability in Tween 80/ethanol/water formulation (HPLC); type: physicochemical; settings: for First order degradation rate constant k: aqueous formulation, mean ± SD (n=3)
Method: Gem-DHA was solubilized into an aqueous formulation that contains Tween 80 (10%, w/v) and ethanol (5.5%, v/v) (referred to as the Tween 80/ethanol/water formulation) to evaluate its in vivo activity. The stability of Gem-DHA in this formulation was evaluated in crimp-sealed amber glass vials under nitrogen atmosphere. Briefly, 150 μl of the Gem-DHA aqueous solution at a concentration of about 7 mg/ml were added to the amber glass vials under nitrogen atmosphere, and the vials were crimp-sealed with aluminum seals over rubber lids. At predetermined time intervals, 10 μl of the solution were diluted with 90 μl of methanol and mixed, and the concentration was measured using HPLC. Stability tests were carried out at room temperature (˜22° C.) or 4° C. in triplicates. Vitamin E was added in the formulation to a final concentration of 0.01% or 0.04% (v/v) to evaluate the effect of vitamin E on the chemical stability of Gem-DHA.
The degradation was slower at 4° C. […] Indeed, it was reported that a higher concentration of vitamin E may not necessarily have a higher anti-oxidative activity, as higher concentrations may sometimes lead to opposite effects (Owen S C. In: Rowe R C, Sheskey P J, Owen S C Eds, Handbook of Pharmaceutical Excipients. London, Pharmaceutical Press, 2006; 32-35).
To study the effect of temperature on the chemical stability of Gem-DHA, the Gem-DHA formulation in crimp-sealed vials under nitrogen was stored in room temperature, 37° C., or 60° C., protected from light. Sampling and analyses were carried out at pre-determined time points as described above. The first order degradation reaction equation was used to calculate the values of the reaction rate (k) at different temperatures (Table 2). An Arrhenius plot was constructed by plotting the In k values vs. 1/T to calculate the activation energy (Ea, in kcal/mol). The activation energy of the chemical reaction was calculated to be 12.86 kcal/mol (FIG. 2C).

Panc-02 cells [6] = experiment: Apoptosis analysis, Annexin V staining and flow cytometry; type: cell-based, mouse; settings: 48 h
Method: Apoptosis analysis was carried out as previously reported (Zhu S et al. Biomaterials. 2013, 34(9), 2327-2339). Briefly, 100,000 Panc-02 cells were incubated in 24-well plates for 24 h at 37° C. and 5% CO2 and then co-incubated with various concentrations of Gem-DHA for 48 h. The cells were then harvested and stained with 0.1 ml of Guava Nexin reagent (Millipore Corporation, Billerica, Mass.) for 20 min at room temperature, protected from light. The stained cells were analyzed using a Millipore Guava easyCyte 8HT Flow Cytometry System. Control cells were left untreated.

For `CC/C=C\C/C=C\C/C=C\C/C=C\C/C=C\C/C=C\CCC(=O)Nc1ccn(C2OC(CO)C(O)C2(F)F)c(=O)n1` (centres unmarked) [Gem-DHA, 4-(N)-Docosahexaenoyl Difluorodeoxycytidine], the Distribution among organs [1] was “high percent of the injected Gem-DHA was in mouse pancreas”, the “Growth inhibition in NCI-60 screen” value [2] was “inhibited the growth of various types of human tumor cells” and the “Tolerability (body weights)” value (Panc-02 tumors; Panc-02 tumor-bearing mice, dosing regimen tested) was “well tolerated”. For the same molecule, the “Inhibition of Panc-02 tumor growth” value (Panc-02 tumors; i.p., ~0.1 mmole/kg, twice a week, up to 6 doses) was “significantly inhibited the tumor growth”, the “Cytotoxicity, LDH assay (comparison)” value (Panc-02 cells [3]) was “more cytotoxic than gemcitabine HCl” and the “Percent of injected compound recovered in each gram of pancreas” value [4] was 0.37±0.18%. For the same molecule, the “Degradation in Tween 80/ethanol/water formulation” value ([5]; 4° C., compared with room temperature) was “slower”, the “Activation energy (Ea) of the degradation” value ([5]; Arrhenius plot of ln k vs 1/T) was 12.86 kcal/mol and the “First order degradation rate constant k” value ([5]; 37° C.) was 0.042 ± 0.005 h⁻¹. The “First order degradation rate constant k” value ([5]; 60° C.) was 0.106 ± 0.009 h⁻¹, the “First order degradation rate constant k” value ([5]; room temperature (~22° C.)) was 0.018 ± 0.001 h⁻¹ and the “Degradation in Tween 80/ethanol/water formulation” value ([5]; room temperature (~22° C.)) was “found to degrade at room temperature”. For the same molecule, the “Degradation in Tween 80/ethanol/water formulation” value ([5]; with vitamin E 0.01% or 0.04%, 0.01% more effective than 0.04%) was “slower in the presence of vitamin E” and the “Pro-apoptotic activity, Annexin V staining” value (Panc-02 cells [6]) was “concentration-dependent apoptosis”.
